Tests used:
Experiment in all cases: relative viability (nuclei count vs DMSO), 5 days (fraction); higher = more cells survive
Adavosertib = compound: C=CCn1c(=O)c2cnc(Nc3ccc(N4CCN(C)CC4)cc3)nc2n1-c1cccc(C(C)(C)O)n1 [Adavosertib]
In short: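 Cells of lung cancer lines were placed in 1536-well plates and kept overnight at 37 °C. Pinning then delivered five library-drug doses (not always all listed), spaced by √10, onto plates anchored with vehicle, and the cells were left 5 days without changing medium. One step fixed, permeabilised and stained them with Hoechst, and MetaXpress counted nuclei in 4× images. Viability, as a median over plates, is treated-well nuclei divided by vehicle-well nuclei, with acceptance only at control CV below 25% and at least one doubling.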

Adavosertib + Bortezomib = compound: C=CCn1c(=O)c2cnc(Nc3ccc(N4CCN(C)CC4)cc3)nc2n1-c1cccc(C(C)(C)O)n1 [Adavosertib] + CC(C)C[C@H](NC(=O)[C@H](Cc1ccccc1)NC(=O)c1cnccn1)B(O)O [Bortezomib] (partner 0.002 µM)
In short: (§1)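 Five library-drug doses in √10 steps were combined with a fixed anchor-drug dose, or a single drug was given alone, by pin tool to lung cancer cell lines in 1536-well plates the day after seeding. Nuclei were stained and counted after 5 days. Relative viability is the nuclei count in treated wells over that in vehicle wells, taken as the median of duplicate plates.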

Nelarabine + Phenformin = compound: COc1nc(N)nc2c1ncn2[C@@H]1O[C@H](CO)[C@@H](O)[C@@H]1O [Nelarabine] + N=C(N)NC(=N)NCCc1ccccc1 [Phenformin] (partner 250 µM)
In short: as §1

Adavosertib + Pemetrexed = compound: C=CCn1c(=O)c2cnc(Nc3ccc(N4CCN(C)CC4)cc3)nc2n1-c1cccc(C(C)(C)O)n1 [Adavosertib] + Nc1nc2[nH]cc(CCc3ccc(C(=O)N[C@@H](CCC(=O)O)C(=O)O)cc3)c2c(=O)[nH]1 [Pemetrexed] (partner 0.2 µM)
In short: as §1

Row | Cell Line | relative viability (Adavosertib; 0.01 µM) | relative viability (Adavosertib; 0.03162 µM) | relative viability (Adavosertib; 0.1 µM) | relative viability (Adavosertib; 0.3162 µM) | relative viability (Adavosertib + Bortezomib; first compound 0.01 µM) | relative viability (Adavosertib + Bortezomib; first compound 0.03162 µM) | relative viability (Adavosertib + Bortezomib; first compound 0.1 µM) | relative viability (Adavosertib + Bortezomib; first compound 0.3162 µM) | relative viability (Nelarabine + Phenformin; first compound 0.01 µM) | relative viability (Nelarabine + Phenformin; first compound 0.03162 µM) | relative viability (Nelarabine + Phenformin; first compound 0.1 µM) | relative viability (Nelarabine + Phenformin; first compound 0.3162 µM) | relative viability (Nelarabine + Phenformin; first compound 1 µM) | relative viability (Adavosertib + Pemetrexed; first compound 0.01 µM) | relative viability (Adavosertib + Pemetrexed; first compound 0.03162 µM) | relative viability (Adavosertib + Pemetrexed; first compound 0.1 µM) | relative viability (Adavosertib + Pemetrexed; first compound 0.3162 µM)
1 | LC-2-ad | 0.979 | 1.02 | 1.01 | 1.13 | 1.11 | 1.08 | 1.09 | 1.16 | 0.618 | 0.613 | 0.637 | 0.54 | 0.536 | 0.288 | 0.276 | 0.302 | 0.277
2 | NCI-H2085 | 0.991 | 1.01 | 1 | 1.03 | 1.04 | 1.05 | 1.05 | 1.11 | 0.73 | 0.703 | 0.669 | 0.69 | 0.767 | 0.881 | 0.86 | 0.901 | 0.998
3 | NCI-H661 | 0.996 | 1.03 | 1.08 | 0.769 | 0.941 | 0.695 | 0.889 | 0.738 | 0.282 | 0.277 | 0.276 | 0.274 | 0.258 | 0.915 | 0.834 | 0.74 | 0.415
4 | H3255 | 0.888 | 1.07 | 1.02 | 1.08 | 0.539 | 0.885 | 0.699 | 0.845 | – | 0.361 | 0.341 | 0.321 | 0.337 | 0.553 | 0.59 | 0.563 | 0.536
5 | NCI-H441 | 1.16 | 1.01 | 1.19 | 1.02 | 0.38 | 0.761 | 0.414 | 0.354 | 0.862 | 0.93 | 0.666 | 0.898 | 0.883 | 0.235 | 0.265 | 0.275 | 0.225
6 | NCI-H838 | 0.978 | 0.919 | 0.996 | 0.948 | 0.993 | 0.946 | 0.754 | 0.824 | 0.701 | 0.549 | 0.608 | 0.595 | 0.628 | 0.263 | 0.22 | 0.172 | 0.168
7 | NCI-H460 | 1.03 | 1.01 | 1.02 | 1.08 | 1.14 | 0.966 | 1.22 | 0.966 | 1.35 | 0.648 | 0.646 | 0.611 | 0.482 | 0.0616 | 0.0693 | 0.0573 | 0.0705
8 | NCI-H1650 | 0.867 | 0.981 | 0.943 | 0.472 | 0.223 | 0.211 | 0.207 | 0.194 | 0.39 | 0.427 | 0.379 | 0.436 | 0.445 | 0.387 | 0.366 | 0.281 | 0.278
9 | PC-14 | 1.01 | 1.01 | 1.01 | 0.605 | 1.05 | 0.873 | 0.926 | 0.334 | 0.645 | 0.46 | 0.67 | 0.556 | 0.447 | 0.151 | 0.121 | 0.115 | 0.0767
10 | LXF-289 | 1.02 | 0.988 | 1.01 | 1.04 | 0.959 | 0.948 | 0.999 | 0.999 | 0.532 | 0.574 | 0.526 | 0.571 | 0.524 | 0.914 | 0.931 | 0.856 | 0.722
11 | UMC-11 | 0.973 | 0.943 | 1 | 1.08 | 0.737 | 0.481 | 0.927 | 0.708 | 0.33 | 0.325 | 0.347 | 0.294 | 0.31 | 0.791 | 0.725 | 0.763 | 0.594
12 | A-427 | 1.02 | 1.02 | 1.05 | 0.894 | 0.906 | 1.04 | 0.964 | 0.861 | 0.315 | 0.22 | 0.306 | 0.289 | 0.236 | 0.97 | 0.905 | 0.892 | 0.893
13 | LOU-NH91 | 0.956 | 0.992 | 0.974 | 0.918 | 0.484 | 0.502 | 0.502 | 0.489 | 0.49 | 0.782 | 0.741 | 0.768 | 0.751 | 0.371 | 0.371 | 0.338 | 0.36
14 | RERF-LC-KJ | 1.01 | 0.971 | 1.02 | 0.994 | 1.14 | 1.02 | 1.19 | 1.28 | 0.436 | 0.427 | 0.403 | 0.403 | 0.425 | 0.384 | 0.463 | 0.481 | 0.471
15 | NCI-H1666 | 0.975 | 1 | 1.05 | 0.997 | 0.831 | 0.87 | 0.729 | 0.62 | 0.576 | 0.607 | 0.569 | 0.536 | 0.606 | 0.808 | 0.925 | 0.82 | 0.695
16 | NCI-H322M | 0.85 | 0.953 | 0.845 | 0.61 | – | 1.17 | 1.2 | 0.869 | 0.819 | 0.716 | 0.762 | 0.776 | 0.745 | 0.593 | 0.625 | 0.52 | 0.469
17 | HCC-366 | 1.04 | 1.05 | 0.998 | 1.01 | 1.03 | 1.05 | 1.1 | 1.05 | 0.644 | 0.602 | 0.663 | 0.585 | 0.589 | 0.227 | 0.143 | 0.136 | 0.0818
18 | NCI-H1792 | 0.749 | 0.915 | 0.75 | 0.895 | 0.974 | 0.918 | 0.972 | 0.968 | 0.211 | 0.4 | 0.261 | 0.3 | 0.323 | 0.858 | 0.756 | 0.718 | 0.71

Source: the supplement of paper PMC10307832
